This passage reports Kb and melting point results from patent US10577332B2, “Tetrazole derivatives” (Hoffmann-La Roche Inc., priority 2015, dated 2020).

One data set deals with T1, human EAAT3 (Homo sapiens, UniProt P43005).
T1 construct: expressed in transfected cells
T1 sequence (P43005 1-524): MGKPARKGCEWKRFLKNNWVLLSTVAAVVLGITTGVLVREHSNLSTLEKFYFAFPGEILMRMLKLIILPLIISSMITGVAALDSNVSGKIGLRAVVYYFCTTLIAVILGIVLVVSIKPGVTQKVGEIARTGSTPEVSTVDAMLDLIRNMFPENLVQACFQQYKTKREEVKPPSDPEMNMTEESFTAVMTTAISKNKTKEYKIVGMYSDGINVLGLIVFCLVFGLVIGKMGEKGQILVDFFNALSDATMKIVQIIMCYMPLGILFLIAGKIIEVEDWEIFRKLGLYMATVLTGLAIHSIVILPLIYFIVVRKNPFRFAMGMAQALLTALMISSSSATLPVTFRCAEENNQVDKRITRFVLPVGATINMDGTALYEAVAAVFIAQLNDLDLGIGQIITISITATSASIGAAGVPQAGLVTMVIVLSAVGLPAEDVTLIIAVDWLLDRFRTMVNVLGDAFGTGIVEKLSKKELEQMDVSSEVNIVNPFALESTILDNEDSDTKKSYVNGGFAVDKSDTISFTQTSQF
The data set is described as follows: FLIPR Membrane Potential (FMP) assay. In kind it is cell-based. Particulars: HEK-293 cells stably expressing human EAAT3; antagonist applied 15 min before L-glutamate at EC80; Kb by Cheng-Prusoff from IC50. Here is the method: The FLIPR Membrane Potential (FMP) Assay
HEK-293 cells stably expressing human EAAT3 were seeded at 55 000 cells/well in growth medium (DMEM glutamate free (Invitrogen 11960-044), 1% Pen Strep (10 ml/l GIBCO BRL No 15140-023), 10% FCS non dialysed heat inactivated, 5 mg/l puromycin) in poly-D-lysine treated 96-well black microtiter plates with clear-bottom. After 24 h, the growth medium was removed and 100 μl/well of Krebs buffer (140 mM NaCl, 4.7 mM KCl, 2.5 mM CaCl2, 1.2 mM MgCl2, 11 mM HEPES, 10 mM D-glucose, pH=7.4) added. The cells were then loaded by adding 100 μl/well FMP assay dye (FLIPR Membrane Potential assay reagent, Molecular Devices). The 96-well plates were then incubated at 37° C. for 1 h. The depolarization of the cells will cause more dye to enter in the cells, where it will bind to intracellular proteins and lipids and cause an increase in the fluorescence signal. Antagonist potency at human EAAT3 was determined by using L-glutamate as agonist at a concentration which gives 80% of the maximum response. The antagonists were applied 15 min before the application of the agonist L-glutamate. The assays were performed at room temperature and measurements done by using a Fluorometric Imaging Plate Reader (FLIPR, Molecular Devices) and filter #2. Responses were measured as peak increase in fluorescence minus basal (i.e. fluorescence without addition of L-glutamate). Kb was determined using the Cheng-Prusoff equation Kb=IC50/[1+(A/EC50)], where IC50 is the concentration of the antagonist producing 50% inhibition, A is the concentration of the agonist against which the IC50 is being determined (at EC80) and EC50 is the concentration of the agonist producing 50% […].

`CC1(NC(=O)c2cc(-c3ccc(F)cc3)cc(-n3cnnn3)c2)CCS(=O)(=O)C1` (racemic) [Example 4, (RS)-3-(4-Fluorophenyl)-N-(3-methyl-1,1-dioxothiolan-3-yl)-5-(tetrazol-1-yl)-benzamide] gave a melting point of 146.5 °C. Besides, on human EAAT3, the antagonist equilibrium constant (Kb) worked out at 0.46 µM.
Take `CC1(NC(=O)c2cc(-c3ccc(Cl)cc3)cc(-n3cnnn3)c2)CCS(=O)(=O)C1` (racemic) [Example 16, (RS)-3-(4-Chlorophenyl)-N-(3-methyl-1,1-dioxothiolan-3-yl)-5-(tetrazol-1-yl)-benzamide]: the melting point worked out at 204 °C. At human EAAT3, this molecule registered a Kb of 0.63 µM.
The like results for `Cc1ccc(-c2cc(C(=O)NC3(C)CCS(=O)(=O)C3)cc(-n3nnnc3C(C)C)c2)cc1` (racemic) [Example 17, (RS)-N-(3-methyl-1,1-dioxothiolan-3-yl)-3-(4-methylphenyl)-5-(5-propan-2-yltetrazol-1-yl)-benzamide] were, in that order, 112 °C and 0.25 µM.
The molecule `Cc1ccc(-c2cc(C(=O)NC3(C)CCS(=O)(=O)C3)cc(-n3nnnc3C)c2)cc1` (racemic) [Example 24, (RS)-N-(3-Methyl-1,1-dioxothiolan-3-yl)-3-(4-methylphenyl)-5-(5-methyltetrazol-1-yl)-benzamide] yielded a melting point of 69 °C. Besides, the Kb on human EAAT3 was found to be 0.38 µM.
The molecule `Cc1ccc(-c2cc(C(=O)NC3(C)CCS(=O)(=O)C3)cc(-n3nnnc3C3CC3)c2)cc1` (racemic) [Example 33, (RS)-3-(5-Cyclopropyltetrazol-1-yl)-N-(3-methyl-1,1-dioxothiolan-3-yl)-5-(4-methylphenyl)-benzamide] came in with a melting point of 130.5 °C. Further, the antagonist equilibrium constant (Kb) at human EAAT3 is 0.3 µM.
On to `CCc1nnnn1-c1cc(C(=O)NC2(C)CCS(=O)(=O)C2)cc(-c2ccc(C)cc2)c1` (racemic) [Example 34, (RS)-3-(5-Ethyltetrazol-1-yl)-N-(3-methyl-1,1-dioxothiolan-3-yl)-5-(4-methylphenyl)-benzamide], for which the melting point was found to be 122 °C. At human EAAT3, the antagonist equilibrium constant (Kb) was found to be 0.27 µM.
Take `CC(C)c1nnnn1-c1cc(C(=O)NC2(C)CCS(=O)(=O)C2)cc(-c2ccc(Cl)cc2)c1` (racemic) [Example 45, (RS)-3-(4-Chlorophenyl)-N-(3-methyl-1,1-dioxothiolan-3-yl)-5-(5-propan-2-yltetrazol-1-yl)benzamide]: the melting point came out at 73 °C. Moreover, the Kb at human EAAT3 was 0.26 µM.
Take `CC(C)c1nnnn1-c1cc(C(=O)NC2(C)CCS(=O)(=O)C2)cc(-c2ccc(C(F)(F)F)cc2)c1` (racemic) [Example 49, (RS)—N-(3-methyl-1,1-dioxothiolan-3-yl)-3-(5-propan-2-yltetrazol-1-yl)-5-[4-(trifluoromethyl)phenyl]benzamide]: the melting point was found to be 117 °C. For the same molecule, at human EAAT3, the Kb is 0.33 µM.
`CC1(NC(=O)c2cc(-c3ccc(Cl)cc3)cc(-n3nnnc3C3CC3)c2)CCS(=O)(=O)C1` (racemic) [Example 57, (RS)-3-(4-Chlorophenyl)-5-(5-cyclopropyltetrazol-1-yl)-N-(3-methyl-1,1-dioxothiolan-3-yl)-benzamide]: the melting point came to 126 °C. Further, the Kb on human EAAT3 is 0.35 µM.
Molecule `CC(C)c1nnnn1-c1cc(C(=O)NC2(C)CCS(=O)(=O)C2)cc(-c2ccc(F)cc2)c1` (racemic) [Example 63, (RS)-3-(4-Fluorophenyl)-N-(3-methyl-1,1-dioxothiolan-3-yl)-5-(5-propan-2-yltetrazol-1-yl)-benzamide] came in with a melting point of 112.5 °C. Moreover, the antagonist dissociation constant (Kb) on human EAAT3 was found to be 0.65 µM.
The molecule `Cc1nnnn1-c1cc(C(=O)NC2(C)CCS(=O)(=O)C2)cc(-c2ccc(Cl)cc2)c1` (racemic) [Example 65, (RS)-3-(4-Chlorophenyl)-N-(3-methyl-1,1-dioxothiolan-3-yl)-5-(5-methyltetrazol-1-yl)-benzamide] returned a melting point of 155.5 °C. For the same molecule, the Kb at human EAAT3 came out at 0.36 µM.
Molecule `CC1(NC(=O)c2cc(-c3ccc(F)cc3)cc(-n3nnnc3C3CC3)c2)CCS(=O)(=O)C1` (racemic) [Example 77, (RS)-3-(5-Cyclopropyltetrazol-1-yl)-5-(4-fluorophenyl)-N-(3-methyl-1,1-dioxothiolan-3-yl)-benzamide] showed a melting point of 120 °C. At human EAAT3, this molecule registered an antagonist dissociation constant (Kb) of 0.25 µM.
With `Cc1nnnn1-c1cc(C(=O)NC2(C)CCS(=O)(=O)C2)cc(-c2ccc(F)cc2)c1` (racemic) [Example 87, (RS)-3-(4-Fluorophenyl)-N-(3-methyl-1,1-dioxothiolan-3-yl)-5-(5-methyltetrazol-1-yl)-benzamide], the melting point was found to be 117 °C. Moreover, the Kb on human EAAT3 stood at 0.29 µM.
Taken in the same sequence, the figures for `CC1(NC(=O)c2cc(-c3ccc(Cl)cc3)cc(-n3nnnc3C(C)(C)C)c2)CCS(=O)(=O)C1` (racemic) [Example 89, (RS)-3-(5-tert-Butyltetrazol-1-yl)-5-(4-chlorophenyl)-N-(3-methyl-, 1-dioxothiolan-3-yl)benzamide] were 187 °C and 0.25 µM.
The molecule `CC1(NC(=O)c2cc(-c3ccc(F)cc3)cc(-n3nnnc3C(C)(C)C)c2)CCS(=O)(=O)C1` (racemic) [Example 95, (RS)-3-(5-tert-Butyltetrazol-1-yl)-5-(4-fluorophenyl)-N-(3-methyl-, 1-dioxothiolan-3-yl)-benzamide] gave a melting point of 258.5 °C. The molecule also displayed an antagonist equilibrium constant (Kb) at human EAAT3 of 0.35 µM.
For the molecule `CCC(C)(C)NC(=O)c1cc(-c2ccc(F)cc2)cc(-n2cnnn2)c1` [Example 1, 3-(4-Fluorophenyl)-N-(2-methylbutan-2-yl)-5-(tetrazol-1-yl)-benzamide], the melting point turned out to be 200 °C. Moreover, at human EAAT3, the Kb was found to be 0.145 µM.
Molecule `CCC(C)(C)NC(=O)c1cc(-c2ccc(C(F)(F)F)cc2)cc(-n2cnnn2)c1` [Example 2, N-(2-Methylbutan-2-yl)-3-(tetrazol-1-yl)-5-[4-(trifluoromethyl)phenyl]-benzamide] gave a melting point of 168 °C. This molecule yielded an antagonist dissociation constant (Kb) on human EAAT3 of 0.22 µM.
Molecule `CC(C)(C)NC(=O)c1cc(-c2ccc(C(F)(F)F)cc2)cc(-n2cnnn2)c1` [Example 3, N-tert-Butyl-3-(tetrazol-1-yl)-5-[4-(trifluoromethyl)phenyl]-benzamide] came in with a melting point of 108 °C. This molecule also registered an antagonist equilibrium constant (Kb) on human EAAT3 of 0.47 µM.
Take `CCC(C)(C)NC(=O)c1cc(-c2ccc(C(C)C)cc2)cc(-n2cnnn2)c1` [Example 8, N-(2-Methylbutan-2-yl)-3-(4-propan-2-ylphenyl)-5-(tetrazol-1-yl)-benzamide]: at human EAAT3, the antagonist equilibrium constant (Kb) is 0.61 µM.
On to `CCC(C)(C)NC(=O)c1cc(-c2ccc(C3CC3)cc2)cc(-n2cnnn2)c1` [Example 9, 3-(4-Cyclopropylphenyl)-N-(2-methylbutan-2-yl)-5-(tetrazol-1-yl)-benzamide], for which, on human EAAT3, the Kb came out at 0.54 µM.
Molecule `Cc1ccc(-c2cc(C(=O)NC(C)(C)CO)cc(-n3nnnc3C3CC3)c2)cc1` [Example 32, 3-(5-Cyclopropyltetrazol-1-yl)-N-(1-hydroxy-2-methylpropan-2-yl)-5-(4-methylphenyl)-benzamide] yielded a Kb on human EAAT3 of 0.43 µM. The Kb values of the last two molecules are within 1.5-fold of each other.
Take `CCC(C)(C)NC(=O)c1cc(-c2ccc(Cl)c(F)c2)cc(-n2cnnn2)c1` [Example 37, 3-(4-Chloro-3-fluorophenyl)-N-(2-methylbutan-2-yl)-5-(tetrazol-1-yl)-benzamide]: the Kb at human EAAT3 came out at 0.24 µM.
The molecule `CC(C)c1nnnn1-c1cc(C(=O)NC(C)(C)CO)cc(-c2ccc(Cl)cc2)c1` [Example 50, 3-(4-Chlorophenyl)-N-(1-hydroxy-2-methylpropan-2-yl)-5-(5-propan-2-yltetrazol-1-yl)-benzamide] displayed a Kb at human EAAT3 of 0.26 µM.
On human EAAT3, `CC(C)c1nnnn1-c1cc(C(=O)NC(C)(C)CO)cc(-c2ccc(C(F)(F)F)cc2)c1` [Example 51, N-(1-Hydroxy-2-methylpropan-2-yl)-3-(5-propan-2-yltetrazol-1-yl)-5-[4-(trifluoromethyl)-phenyl]-benzamide] had a Kb of 0.37 µM.
At human EAAT3, “N-(2-methylbutan-2-yl)-3-(4-methylphenyl)-5-(5-methyltetrazol-1-yl)-benzamide [Example 22]” had an antagonist dissociation constant (Kb) of 0.15 µM.

The term Kb denotes the equilibrium dissociation constant of an antagonist, usually derived from a functional assay. One may read the melting point as the temperature of the solid-liquid transition.
